From patent US20250144067A1, “PERSONALIZED STARVATION THERAPY FOR CANCER” (Faeth Therapeutics, Inc., priority 2021, published 2025)
Where a name gives a salt, the structure may show the parent alone. Read-outs that look alike come from different tables or passages of the source.

Experiments:
[1] = system: NCI-H292 lung cancer cells; experiment: FDA drug screening, complete media vs cholesterol-free media with simvastatin (TABLE 2); assay type: cell-based, human
[2] = system: NCI-H292 lung cancer cells; experiment: FDA drug screening, complete media vs cholesterol-free media without statin (TABLE 1); assay type: cell-based, human
[3] = NCI-H292 cells, cholesterol-free media with simvastatin 0.04 μM, FDA drug library screen (TABLE 2)
[4] = NCI-H292 cells, complete media, FDA drug library screen (TABLE 2)
[5] = complete media minus cholesterol-free media + simvastatin (0.04 μM), >0 enhanced anti-cancer activity, about 0 neutral, <0 antagonist
[6] = NCI-H292 cells, cholesterol-free media without statin, FDA drug library screen
[7] = NCI-H292 cells, complete media, FDA drug library screen
[8] = complete vs cholesterol-free media, >0 enhanced anti-cancer activity, about 0 neutral, <0 antagonist
[9] = Complete minus Cholesterol-free, >0 enhanced anti-cancer activity, about 0 neutral, <0 antagonist
[10] = Complete minus Cholesterol-free, greater than 0 enhanced anti-cancer activity, about 0 neutral, below 0 antagonists
[11] = NCI-H292 cells in cholesterol-free media without statin
[12] = NCI-H292 cells in complete media
[13] = NCI-H292 cells, FDA library drug in cholesterol-free media with simvastatin 0.04 μM
[14] = NCI-H292 cells, FDA library drug in complete media
[15] = NCI-H292 cells, drug in cholesterol-free media with simvastatin 0.04 μM
[16] = NCI-H292 cells, drug in complete media
[17] = complete media vs cholesterol-free media + simvastatin (0.04 μM), >0 enhanced anti-cancer activity, about 0 neutral, <0 antagonist
[18] = NCI-H292 cells, cholesterol-free media without statin
[19] = NCI-H292 cells, cholesterol-free media with simvastatin 0.04 μM, cell growth value in FDA drug screen
[20] = NCI-H292 cells, complete media, cell growth value in FDA drug screen
[21] = complete media minus cholesterol-free media + simvastatin, >0 enhanced anti-cancer activity, about 0 neutral, <0 antagonist

For `C[C@H](CCC(=O)O)[C@H]1CC[C@H]2[C@@H]3[C@H](O)C[C@@H]4C[C@H](O)CC[C@]4(C)[C@H]3CC[C@]12C` [Chenodeoxycholic Acid], the “Cholesterol-free media + simvastatin (0.04 μM)” value [1, 3] was 0.895, the “Complete Media” value [1, 4] was 0.9061 and the Difference [1, 5] was 0.01. For the same compound, the Cholesterol-free [2, 6] was 0.7972, the Complete [2, 7] was 1.211 and the Difference [2, 8] was 0.41.

`[H]/N=C(\N/C(=N/[H])NCCCCCCNC(=N)NC(=N)Nc1ccc(Cl)cc1)Nc1ccc(Cl)cc1` [Chlorhexidine (digluconate)] was tested, and the “Cholesterol-free media + simvastatin (0.04 μM)” value [1, 3] was 1.008, the “Complete Media” value [1, 4] was 0.9694 and the Difference [1, 5] was −0.04. For the same compound, the Cholesterol-free [2, 6] was 0.8244, the Complete [2, 7] was 0.943 and the Difference [2, 8] was 0.12.

In the case of `[H]/N=C(\N/C(=N/[H])NCCCCCCNC(=N)NC(=N)Nc1ccc(Cl)cc1)Nc1ccc(Cl)cc1` [Chlorhexidine], the “Cholesterol-free media + simvastatin (0.04 μM)” value [1, 3] is reported as 0.6176, the “Complete Media” value [1, 4] is reported as 0.5919 and the Difference [1, 5] is reported as −0.03. The Difference [2, 9] was 0.04, the Cholesterol-free [2, 6] was 0.0819 and the Complete [2, 7] was 0.1259.

In the case of `CC(=O)O[C@]1(C(C)=O)CC[C@H]2[C@@H]3C=C(Cl)C4=CC(=O)CC[C@]4(C)[C@H]3CC[C@@]21C` [Chlormadinone acetate], the “Cholesterol-free media + simvastatin (0.04 μM)” value [1, 3] is reported as 1.079, the “Complete Media” value [1, 4] is reported as 1.06 and the Difference [1, 5] is reported as −0.02. The Difference [2, 10] was −0.74, the Cholesterol-free [2, 11] was 1.695 and the Complete [2, 12] was 0.9505.

In the case of `CN1C(=O)CCS(=O)(=O)C1c1ccc(Cl)cc1` (stereo not drawn) [Chlormezanone], the “Cholesterol-free media + simvastatin (0.04 μM)” value [1, 13] is reported as 1.449, the “Complete Media” value [1, 14] is reported as 1.114 and the Difference ([1]; complete media vs cholesterol-free media + simvastatin (0.04 μM), […]) is reported as −0.34. The Cholesterol-free [2, 6] was 0.6871, the Complete [2, 7] was 0.9881 and the Difference ([2]; complete vs cholesterol-free media, […]) was 0.30.

For `CC(C)(O)C(Cl)(Cl)Cl` [Chlorobutanol], the “Cholesterol-free media + simvastatin (0.04 μM)” value [1, 15] was 1.763, the “Complete Media” value [1, 16] was 1.523 and the Difference [1, 17] was −0.24. It also gave a Difference [2, 9] of 0.02, a Cholesterol-free [2, 6] of 0.5641 and a Complete [2, 7] of 0.5799.

`CCN(CC)CCOC(=O)c1ccc(N)cc1Cl` [Chloroprocaine (hydrochloride)] was tested, and the “Cholesterol-free media + simvastatin (0.04 μM)” value [1, 13] was 1.184, the “Complete Media” value [1, 14] was 0.9029 and the Difference [1, 17] was −0.28. The Difference [2, 9] was −0.28, the Cholesterol-free [2, 18] was 1.161 and the Complete ([2]; NCI-H292 cells, complete media) was 0.8831.

For `CN(C)CCN(Cc1ccc(Cl)cc1)c1ccccn1` [Chloropyramine hydrochloride], the “Cholesterol-free media + simvastatin (0.04 μM)” value [1, 19] was 0.999, the “Complete Media” value [1, 20] was 1.055 and the Difference [1, 21] was 0.06. For the same compound, the Difference ([2]; Complete minus Cholesterol-free, greater than 0 enhanced anti-cancer activity, about 0 neutral, below 0 antagonist) was −0.17, the Cholesterol-free ([2]; NCI-H292 cells, FDA drug library screen, cholesterol-free media without statin) was 1.558 and the Complete ([2]; NCI-H292 cells, FDA drug library screen, complete media) was 1.385.

For `CCN(CC)CCCC(C)Nc1ccnc2cc(Cl)ccc12` (stereo not drawn) [Chloroquine], the “Cholesterol-free media + simvastatin (0.04 μM)” value [1] was 2.192, the “Complete Media” value [1] was 0.9997 and the Difference [1] was −1.19. It also gave a Cholesterol-free [2] of 1.226, a Complete [2] of 0.9181 and a Difference [2] of −0.31.

With `NS(=O)(=O)c1cc2c(cc1Cl)N=CNS2(=O)=O` [Chlorothiazide] the “Cholesterol-free media + simvastatin (0.04 μM)” value [1, 15] was 1.126, the “Complete Media” value [1, 16] was 0.9372 and the Difference [1, 17] was −0.19. For the same compound, the Cholesterol-free [2, 6] was 0.8661, the Complete [2, 7] was 1.321 and the Difference [2, 8] was 0.45.

With `Oc1c(Cl)cc(Cl)c2cccnc12` [Chloroxine] the “Cholesterol-free media + simvastatin (0.04 μM)” value [1, 19] was 0.8888, the “Complete Media” value [1, 20] was 1.011 and the Difference [1, 21] was 0.12. For the same compound, the Cholesterol-free [2, 6] was 1.086, the Complete [2, 7] was 1.288 and the Difference [2, 8] was 0.20.

For `Cc1cc(O)cc(C)c1Cl` [Chloroxylenol], the “Cholesterol-free media + simvastatin (0.04 μM)” value [1, 3] was 0.9866, the “Complete Media” value [1, 4] was 0.951 and the Difference [1, 5] was −0.04. The Difference [2, 9] was −0.19, the Cholesterol-free [2, 18] was 1.219 and the Complete ([2]; NCI-H292 cells, complete media) was 1.028.

For `CN(C)CCOC(C)(c1ccccc1)c1ccc(Cl)cc1` (stereo not drawn) [Chlorphenoxamine], the “Cholesterol-free media + simvastatin (0.04 μM)” value [1, 13] was 1.703, the “Complete Media” value [1, 14] was 1.16 and the Difference [1, 17] was −0.54. It also gave a Cholesterol-free [2, 18] of 1.303, a Complete ([2]; NCI-H292 cells, complete media) of 0.9903 and a Difference ([2]; complete vs cholesterol-free media, greater than 0 enhanced anti-cancer activity, about 0 neutral, below 0 antagonists) of −0.31.

For `CCCNC(=O)NS(=O)(=O)c1ccc(Cl)cc1` [Chlorpropamide], the “Cholesterol-free media + simvastatin (0.04 μM)” value [1, 15] was 1.114, the “Complete Media” value [1, 16] was 0.9308 and the Difference [1, 17] was −0.18. It also gave a Difference [2, 10] of −0.51, a Cholesterol-free [2, 11] of 1.49 and a Complete [2, 12] of 0.9801.
